Marks after values point to notes of the source that are not given here.
Tests used:
[1] = tested on: nonfusion human umbilical vein endothelial cells (HUVEC); assay: TMT quantitative proteomics on nonfusion HUVEC; format: cell-based; settings: 10 μM; for Differentially expressed proteins: more than 1.5 times or less than 0.67 times vs control; for Down-regulation / Up-regulation: number of proteins
Description: Nonfusion human umbilical vein endothelial cells (HUVEC) were used to simulate new tumor blood vessels, while confluent HUVECs were used to simulate normal blood vessels, to construct experimental models. Two different HUVECs were treated with the compound at the same dosage of 10 μM, to simulate the fusion cell state, and proteome samples were prepared. After preparation of peptide segments, the segments were labelled with TMT, and a quantitative proteomics analysis was carried out. The efficiency of TMT labeling was higher than 99.4%, and a total of 28372 peptide segments from 4934 proteins were characterized using a strict 1% FDR limit. Among them, 4909 quantifiable proteins were identified, indicating reliable quality. The nonfusion treatment groups and the fusion treatment groups were compared with their respective control groups, and the control group was used as a reference, with a significant difference of more than 1.5 times or less than 0.67 times as the protein score standard.
The total cell proteins of the samples in nonfusion cell groups and fusion cell groups were extracted separately, and 2 μg of protein samples were subjected to quality analysis, The quantitative proteomics experiments were carried out, and the protein concentration assay was performed by quantitative grayscale measurement.
Data analysis: The human protein database (Scientific name: Homo sapiens, 9606) was downloaded from UniProt, MaxQuant (v 1.5.5.1) search engine was used to search for the database. A total of 4934 proteins (4909 quantitative proteins) and 28372 peptide segments were identified by TMT quantitative proteomics experiments, with a labeling efficiency of more than 99%, and the complete digestion occupied 86.3%.

[2] = tested on: LLC (mouse lung cancer cells); assay: Enrichment of CD8+ cytotoxic T lymphocytes in tumor tissue, Lewis non-small cell lung cancer model of mice; format: in vivo; settings: 400 mg/kg ip once a day for 10 days, flow cytometry
Description: LLC (mouse lung cancer cells) were a mouse Lewis lung cancer cells.
The modeling method for LLC cell lung cancer in mice was as follows:
LLC cells were cultured in the general medium containing 10% fetal bovine serum and 100 μg/mL of double antibody (penicillin±streptomycin), and then cultivated in a 37° C., 5% CO2 cell incubator for routine incubation. LLC cells, that had grown to logarithmic phase, were digested with 0.25% trypsin (containing EDTA) to form a cell suspension, which was centrifuged at 1000 rpm/min for 3 min. The supernatant was discarded, and cell precipitates were collected, that were resuspended in culture medium without serum and double antibody. The cell suspension was further centrifuged to adjust the volume under the same conditions with the aid of cell counting, so as to prepare a cell suspension at a concentration of […] was injected into the right abdomen of each mouse, to complete the inoculation of tumor cells. The tumor was allowed to grew about 10 days, and the volume reached around 100 mm^3, before the mice were treated with test compounds.
Drug preparation: compounds 1-13 of the present invention were respective prepared into an injection with injection water.
Experimental methods: The model mice with LLC cell lung cancer were treated by intraperitoneal administration of 400 mg/kg injection containing the compound of the present invention. The model mice were divided into a negative control group (model mice only receiving equal volume of injection water by intraperitoneal administration) and treatment groups (model mice receiving the injection prepared with the compound of the present invention by intraperitoneal administration). The intraperitoneal injection regimen was carried out by injecting once a day at the pre-determined time. Before administration, the mice were weighed, and then treated with the injection at a dosage of 10 mL/kg, After successive administration for 10 days, that is, on the 10th day after receiving treatment, the mice were sacrificed, and the subcutaneous tumors were stripped to detect the ratio of cytotoxic T lymphocyte antigen CD8^+ in tumor tissues of the negative group and the treatment group by flow cytometry.
CD8^+ tumor-infiltrating lymphocytes in tumor tissues were detected by flow cytometry. The specific steps were as follows:
The mice were sacrificed, and then the abdominal epidermis of the mice was cut open using ophthalmic scissors, to fully expose the subcutaneous tumors. The subcutaneous tumor tissues on the right side of the mouse's abdomen were gradually peeled off with tweezers and ophthalmic scissors. After rinsing with PBS, the stripped tumor tissues were cut into about 1 mm using ophthalmic scissors, and then placed in 3 mL of PBS buffer containing 100 μg/mL of hyaluronidase. A centrifuge tube containing a dispersed liquid was placed in a water bath and kept at 37° C. for 20 min. A pipette was used to blow and shake the digestive tumor tissues every 5 minutes to fully digest. The dispersed liquid containing undigested tumor tissues was filtered through a 70 μm stainless steel cell screen, and the remaining undigested tumor tissues were ground using a push rod of 20 mL syringe on 70 μm cell screen and rinsed 5 times with 1 mL of PBS while grinding. The cell suspension passing the cell screen was transferred to a 15 mL centrifuge tube, and centrifuged at 4000 rpm for 3 min. Then, cell precipitates were collected, to which was added 2 mL of red cell lysis buffer, and rested for 10 min, followed by centrifuging at 4000 rpm for 3 min. After washing with PBS, the cells were resuspended by adding 2-3 mL of PBS.
An appropriate amount of cell suspension was used as the sample for flow cytometry, and after counting, the cell suspension was adjusted to have a concentration of 5×10^6/mL. 100 μL of cell suspension was added to a test tube with a pipettor. […]

[3] = tested on: human liver cancer QGY7703; assay: Human liver cancer QGY7703 transplanted tumor in nude mice; format: in vivo, BALB/C nude mice; parameters: key to RTV (d 18): RTV = Vt/Vo, tumor volume relative to volume at grouping (d1); settings: QGY7703, 100 mg/kg iv × 14; for inhibition in vivo at 100 mg/kg: Mus musculus, QGY-7703, read-out: Tumor inhibitory rate %
Description: A human liver cancer QGY7703 model transplanted into nude mice was used in the experiment to investigate the anti-tumor effect of test compounds. The mice were intravenously injected at a dosage of 100 mg/kg for 14 days, and the tumor inhibition rate against human liver cancer QGY7703 was measured.
(§1) Preparation: The compound was prepared as the injection at the desired concentration with sterile normal saline, prior to administration.
Animal strain: BALB/C nude mice (SPF grade), weight: 19-21 g, gender: male. Number of animals in each treatment group: 8; number of animals in the control group: >12.
(§2) The tumor blocks of human liver cancer QGY7703 with good growth were cut into uniform small pieces of 3 mm under sterile conditions, and then subcutaneously inoculated into the right armpit of each mouse with a cannula. These mice were divided into 9 groups, 8 mice for each treatment group, while more than 12 mice were included in the control group.
(§3) 14 days after inoculation, the average volume of the tumor block was about 100 mm^3. The animals were regrouped based on the size of the tumor, and the animals with tumors that were too large and too small were sifted out. For each group, the average volume of tumors was basically the same, and then the mice were initially treated with test compounds. The mice in the treatment groups were intravenously injected once a day for 14 days, at a dosage of 0.1 mL/20 g body weight; the mice in the control group were given the same volume of sterile normal saline. From the 14th day of inoculation, the long diameter a (mm) of the tumor, together with the perpendicular short diameter b (mm), was measured using a digital electronic caliper, twice a week. The calculation formula of tumor volume is: TV=ab^2/2, and the formula for calculating the relative tumor volume is RTV=Vt/Vo, wherein Vo denotes the tumor volume measured when the mice were divided into groups (i.e. d1), and Vt is the tumor volume from each measurement.
(§4) The result determination is based on the following formula: […]

[4] = tested on: LLC (mouse lung cancer cells); assay: Enrichment of CD8+ cytotoxic T lymphocytes in tumor tissue, Lewis non-small cell lung cancer model of mice; format: in vivo; settings: 400 mg/kg ip once a day for 10 days, CD8+ immunohistochemistry
[5] = tested on: human lung cancer A549; assay: Human lung cancer A549 transplanted tumors in nude mice; format: in vivo, BALB/C nude mice; settings: A549, 400 mg/kg ig × 14
Description: In this experiment, a human lung cancer A549 model transplanted into nude mice was selected to study the anti-tumor effect of test compounds. The mice were treated at a dosage of 400 mg/kg by gavage for 14 days, and the tumor inhibition rate against human lung cancer A549 was measured.
Preparation: The compound was prepared as the solution at the desired concentration with distilled water, prior to administration.
Animal strain: BALB/C nude mice (SPF grade), weight: 19-21 g, gender: male. Number of animals in each treatment group: 8; Number of animals in the control group: >12.
Lung cancer A549 tumor blocks with good growth were chosen and cut into uniform small pieces of 3 mm under sterile conditions, and then subcutaneously inoculated into the right armpit of each mouse with a cannula. These mice were divided into 9 groups, 8 mice for each treatment group, while more than 12 mice were included in the control group.
14 days after inoculation, the average volume of the tumor mass was about 100 mm^3. The animals were regrouped based on the size of the tumor, and the mice with tumors that were too large and too small were eliminated. For each group, the average volume of tumors was basically the same, and then the mice were treated with test compounds. The mice in the treatment groups were administered once a day by gavage for 14 successive days, at a dosage of 0.5 mL/20 g body weight; the mice in the control group were given the same volume of physiological saline. From the 14th day of inoculation, the long diameter a (mm) of the tumor, together with the perpendicular short diameter b (mm), was measured using a digital electronic caliper, twice a week. The calculation formula of tumor volume is: TV=ab^2/2, and the formula for calculating the relative tumor volume is RTV=Vt/Vo, wherein Vo denotes the tumor volume measured when the mice were divided into groups (i.e. d1), and Vt is the tumor volume from each measurement.
as §4

[6] = tested on: human gastric cancer MGC803; assay: Human gastric cancer MGC803 transplanted tumor in nude mice; format: in vivo, BALB/C nude mice; settings: MGC803, 200 mg/kg ip × 14
Description: A human gastric cancer MGC803 model transplanted into nude mice was used in the experiment to investigate the anti-tumor effect of test compounds.
as §1
Animal strain: BALB/C nude mice (SPF grade), weight: 19-21 g, gender: male.
Number of animals in each treatment group: 8; number of animals in the control group: >12.
as §2, with “gastric” for “liver”, “MGC803” for “QGY7703”
as §3, with “mice” for “mice in the treatment groups”, “intraperitoneally” for “intravenously”, “0.2” for “0.1”, “weight.” for “weight; the mice in the control group were given the same volume of sterile normal saline.”, “groups(i.e.” for “groups (i.e.”
as §4

| Compound | Differentially expressed proteins [1] | Down-regulation [1] | Up-regulation [1] | The ratio of CD8^+ in total immune cells of tumor tissues (%) ([2]; 400 mg/kg) | inhibition in vivo at 100 mg/kg [3] [%] | RTV (d 18) [3] | The ratio of distribution area in tumor tissues (%) ([4]; 400 mg/kg) | The ratio of CD8^+ in total immune cells of tumor tissues (%) [2] [%] | RTV (d 22) [5] | inhibition in vivo at 400 mg/kg ([5]; Mus musculus, po, read-out: Tumor inhibitory rate %) [%] | The ratio of distribution area in tumor tissues (%) [4] [%] | RTV (d 18) [6] | Tumor inhibitory rate % [6] |
| --- | --- | --- | --- | --- | --- | --- | --- | --- | --- | --- | --- | --- | --- |
| COc1ccc(/C=C(/C(=O)O)c2cc(OC)c(OC)c(OC)c2)c(O)c1O [Compound 2, (E)-3-(2,3-dihydroxy-4-methoxyphenyl)-2-(3,4,5-trimethoxylphenyl)acrylic acid] | 298 | 288 | 10 | 0.0823 ± 0.0112 | 64.9 | 4.51 ± 0.58 | 7.147 ± 0.7528 |  |  |  |  |  |  |
| COc1cc(/C(=C\c2cc(O)c(OC)c(Cl)c2)C(=O)O)cc(OC)c1OC [Compound 5, (E)-3-(3-chloro-5-hydroxy-4-methoxyphenyl)-2-(3,4,5-trimethoxyphenyl) acrylic acid] | 304 | 297 | 7 |  |  |  |  | 0.0833 ± 0.0107 | 5.73 ± 1.25 | 51.2 | 7.438 ± 0.7610 |  |  |
| COc1cc(/C=C(/C(=O)O)c2cc(OC)c(OC)c(OC)c2)ccc1O [Compound 7, (E)-3-(4-hydroxy-3-methoxyphenyl)-2-(3,4,5-trimethoxyphenyl)acrylic acid] | 289 | 281 | 8 |  | 64 | 4.63 ± 0.75 |  | 0.0774 ± 0.0115 |  |  | 6.653 ± 0.7791 | 4.46 ± 0.62 | 61.28^## % |
